Experimental data from paper PMC9736855, “Discovery of 3-Amino-1H-pyrazole-Based Kinase Inhibitors to Illuminate the Understudied PCTAIRE Family” (International Journal of Molecular Sciences, 2022).

Experiments:
Test in all cases: DSF
Format in all cases: binding
CSNK1D = target: T1, CSNK1D (Homo sapiens, UniProt P48730);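 further: compound tested at 10 µM with 2 µM protein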
T1 construct: purchased in-house DSF panel (SGC Frankfurt)
T1 sequence (P48730 1-294): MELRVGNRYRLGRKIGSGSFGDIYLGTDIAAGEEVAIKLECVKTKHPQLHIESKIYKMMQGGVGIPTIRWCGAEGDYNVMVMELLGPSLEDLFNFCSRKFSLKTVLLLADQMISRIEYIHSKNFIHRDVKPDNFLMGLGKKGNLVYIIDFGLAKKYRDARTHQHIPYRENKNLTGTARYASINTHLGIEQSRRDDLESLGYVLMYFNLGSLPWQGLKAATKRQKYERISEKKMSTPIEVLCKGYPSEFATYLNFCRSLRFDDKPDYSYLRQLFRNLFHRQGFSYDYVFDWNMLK
Procedure: (§1) Recombinant protein kinase domains with a concentration of 2 μM were mixed with a 10 μM compound solution in DMSO, 20 mM HEPES, pH 7.5, and 500 mM NaCl. SYPRO Orange (5000×, Invitrogen) was added as a fluorescence probe (1 µl per mL). Subsequently, temperature-dependent protein unfolding profiles were measured, using the QuantStudio™ 5 realtime PCR machine (Thermo Fisher, Waltham, MA, USA). […] The temperature was raised with a step rate of 3 °C per minute. Data points were analyzed with the internal software (Thermal Shift SoftwareTM Version 1.4, Thermo Fisher) using the Boltzmann equation to determine the inflection point of the transition curve [56]. Differences in melting temperature are given as ΔTm values in °C. Measurements were performed in duplicates.

GSG2 = target: T2, GSG2 (Homo sapiens, UniProt Q8TF76)
T2 construct: purchased in-house DSF panel (SGC Frankfurt)
T2 sequence (Q8TF76 465-798): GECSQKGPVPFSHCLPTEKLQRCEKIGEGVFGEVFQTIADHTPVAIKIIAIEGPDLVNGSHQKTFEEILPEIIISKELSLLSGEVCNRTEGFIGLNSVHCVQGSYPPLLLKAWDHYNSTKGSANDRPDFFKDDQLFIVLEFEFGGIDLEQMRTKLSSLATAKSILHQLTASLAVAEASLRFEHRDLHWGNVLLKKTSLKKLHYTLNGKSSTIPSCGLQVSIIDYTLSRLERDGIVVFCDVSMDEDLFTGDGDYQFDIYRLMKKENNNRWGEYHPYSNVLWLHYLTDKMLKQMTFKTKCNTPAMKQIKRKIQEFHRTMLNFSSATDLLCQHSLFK
Procedure: as §1

MAP2K6 = target: T3, MAP2K6 (Homo sapiens, UniProt P52564)
T3 construct: purchased in-house DSF panel (SGC Frankfurt)
T3 sequence (P52564 53-314): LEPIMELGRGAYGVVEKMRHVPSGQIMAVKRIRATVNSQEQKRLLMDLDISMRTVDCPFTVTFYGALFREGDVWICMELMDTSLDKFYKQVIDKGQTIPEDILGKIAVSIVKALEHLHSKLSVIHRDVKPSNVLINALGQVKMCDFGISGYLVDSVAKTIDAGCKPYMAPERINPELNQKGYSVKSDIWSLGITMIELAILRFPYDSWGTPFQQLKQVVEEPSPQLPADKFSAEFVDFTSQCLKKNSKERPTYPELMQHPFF
Procedure: as §1

MAPK14 = target: T4, MAPK14 (Homo sapiens, UniProt Q16539)
T4 construct: purchased in-house DSF panel (SGC Frankfurt)
T4 sequence (Q16539 whole entry): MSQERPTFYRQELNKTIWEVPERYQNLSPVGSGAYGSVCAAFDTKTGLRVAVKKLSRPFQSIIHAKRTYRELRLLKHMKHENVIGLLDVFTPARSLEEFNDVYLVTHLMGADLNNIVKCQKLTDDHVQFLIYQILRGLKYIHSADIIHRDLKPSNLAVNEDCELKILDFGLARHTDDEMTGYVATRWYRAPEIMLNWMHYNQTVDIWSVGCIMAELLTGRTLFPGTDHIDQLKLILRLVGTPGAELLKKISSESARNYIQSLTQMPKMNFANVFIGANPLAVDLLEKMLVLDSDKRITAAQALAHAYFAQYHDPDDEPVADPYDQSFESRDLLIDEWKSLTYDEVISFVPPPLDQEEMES
Procedure: as §1

MAPK15 = target: T5, MAPK15 (Homo sapiens, UniProt Q8TD08)
T5 construct: purchased in-house DSF panel (SGC Frankfurt)
T5 sequence (Q8TD08 1-346): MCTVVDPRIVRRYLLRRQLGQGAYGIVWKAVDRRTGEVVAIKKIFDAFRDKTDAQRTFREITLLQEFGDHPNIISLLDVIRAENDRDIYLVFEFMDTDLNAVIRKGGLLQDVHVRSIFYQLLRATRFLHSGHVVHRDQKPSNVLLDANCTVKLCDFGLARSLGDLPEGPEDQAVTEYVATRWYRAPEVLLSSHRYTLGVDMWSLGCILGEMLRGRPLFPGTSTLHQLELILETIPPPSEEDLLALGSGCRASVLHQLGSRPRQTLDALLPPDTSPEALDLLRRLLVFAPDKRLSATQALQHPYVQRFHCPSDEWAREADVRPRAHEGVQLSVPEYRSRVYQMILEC
Procedure: as §1

UKL3 = target: T6, UKL3 (Homo sapiens, UniProt Q6PHR2);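 further: compound tested at 10 µM with 2 µM protein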
T6 construct: purchased in-house DSF panel (SGC Frankfurt)
T6 sequence (Q6PHR2 1-279): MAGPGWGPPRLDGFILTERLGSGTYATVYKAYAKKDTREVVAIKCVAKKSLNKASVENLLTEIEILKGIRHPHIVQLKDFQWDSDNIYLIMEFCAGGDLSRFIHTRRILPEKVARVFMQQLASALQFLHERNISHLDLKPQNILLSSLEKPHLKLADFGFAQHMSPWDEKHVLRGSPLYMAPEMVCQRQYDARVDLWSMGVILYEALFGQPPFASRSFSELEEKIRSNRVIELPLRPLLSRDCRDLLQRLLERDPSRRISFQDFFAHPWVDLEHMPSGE
Procedure: as §1

GSK3B = GSK3B (Homo sapiens, UniProt P49841); set-up: purchased in-house DSF panel (SGC Frankfurt); settings: 10 μM compound
GSK3B, sequence (P49841 35-386): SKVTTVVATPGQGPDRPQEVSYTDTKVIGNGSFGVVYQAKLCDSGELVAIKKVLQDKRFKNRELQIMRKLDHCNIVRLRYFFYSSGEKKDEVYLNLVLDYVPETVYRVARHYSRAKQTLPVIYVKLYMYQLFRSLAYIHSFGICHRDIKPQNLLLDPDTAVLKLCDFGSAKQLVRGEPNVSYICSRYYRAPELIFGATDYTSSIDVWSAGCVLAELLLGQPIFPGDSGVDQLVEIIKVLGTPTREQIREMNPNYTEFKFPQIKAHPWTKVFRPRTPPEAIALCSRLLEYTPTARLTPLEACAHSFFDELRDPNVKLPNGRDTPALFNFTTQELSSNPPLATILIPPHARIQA
Outline: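 Differential scanning fluorimetry follows unfolding of the protein through fluorescence of a dye that depends on folding state. The value is ΔTm, the melting-temperature shift between compound-free and compound-bound protein. Duplicate measurements.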

In the case of `CC(C)OC(=O)c1cc(Nc2ccnc(NCc3ccc(NC(=O)OC(C)(C)C)cc3)n2)n[nH]1` [42d, isopropyl 3-((2-((4-((tert-butoxycarbonyl)amino)benzyl)amino)pyrimidin-4-yl)amino)-1H-pyrazole-5-carboxylate], the “ΔTm CSNK1D” value (CSNK1D) is reported as 0.8 °C, the “ΔTm GSG2” value (GSG2) is reported as 0.5 °C and the “ΔTm MAP2K6” value (MAP2K6) is reported as 5.0 °C. The “ΔTm MAPK14” value (MAPK14) was -0.5 °C, the “ΔTm MAPK15” value (MAPK15) was 7.0 °C and the “ΔTm UKL3” value (UKL3) was 2.3 °C. The ΔTm at 10 µM (GSK3B) was 4.7 °C.
With `N#CCc1ccc(Nc2nccc(Nc3cc(C4CC4)[nH]n3)n2)cc1` [compound 1, reference compound] the “ΔTm CSNK1D” value (CSNK1D) was 3.1 °C, the “ΔTm GSG2” value (GSG2) was 2.9 °C and the “ΔTm MAP2K6” value (MAP2K6) was 10.4 °C. The “ΔTm MAPK14” value (MAPK14) was 2.5 °C, the “ΔTm MAPK15” value (MAPK15) was 17.4 °C and the “ΔTm UKL3” value (UKL3) was 8.3 °C. It also gave a ΔTm at 10 µM (GSK3B) of 14 °C.
With `COC(=O)c1cc(Nc2ccnc(NCCOCCNC(=O)OC(C)(C)C)n2)[nH]n1` [21d, methyl 5-((2-((2-(2-((tert-butoxycarbonyl)amino)ethoxy)ethyl)amino)pyrimidin-4-yl)amino)-1H-pyrazole-3-carboxylate] the “ΔTm CSNK1D” value (CSNK1D) was 0.2 °C, the “ΔTm GSG2” value (GSG2) was 0.2 °C and the “ΔTm MAP2K6” value (MAP2K6) was 1.4 °C. The “ΔTm MAPK14” value (MAPK14) was -0.3 °C, the “ΔTm MAPK15” value (MAPK15) was 4.1 °C and the “ΔTm UKL3” value (UKL3) was 0.9 °C. The ΔTm at 10 µM (GSK3B) was 6.2 °C.
With `CC(C)(C)OC(=O)Nc1ccc(CNc2nccc(Nc3cc(C(=O)OC(C)(C)C)[nH]n3)n2)cc1` [43d, tert-butyl 3-((2-((4-((tert-butoxycarbonyl)amino)benzyl)amino)pyrimidin-4-yl)amino)-1H-pyrazole-5-carboxylate] the “ΔTm CSNK1D” value (CSNK1D) was 1.0 °C, the “ΔTm GSG2” value (GSG2) was -0.3 °C and the “ΔTm MAP2K6” value (MAP2K6) was 3.0 °C. The “ΔTm MAPK14” value (MAPK14) was -0.3 °C, the “ΔTm MAPK15” value (MAPK15) was 5.8 °C and the “ΔTm UKL3” value (UKL3) was 3.3 °C. The ΔTm at 10 µM (GSK3B) was 2.9 °C.
In the case of `COC(=O)c1cc(Nc2ccnc(NCc3ccc(NC(=O)OC(C)(C)C)cc3)n2)[nH]n1` [21i, methyl 5-((2-((4-((tert-butoxycarbonyl)amino)benzyl)amino)pyrimidin-4-yl)amino)-1H-pyrazole-3-carboxylate], the “ΔTm CSNK1D” value (CSNK1D) is reported as 0.4 °C, the “ΔTm GSG2” value (GSG2) is reported as -0.2 °C and the “ΔTm MAP2K6” value (MAP2K6) is reported as 5.4 °C. The “ΔTm MAPK14” value (MAPK14) was -0.6 °C, the “ΔTm MAPK15” value (MAPK15) was 5.9 °C and the “ΔTm UKL3” value (UKL3) was 0.3 °C. It also gave a ΔTm at 10 µM (GSK3B) of 7.2 °C.
